# Source: ChEMBL document CHEMBL5096210, “Discovery of Betulinic Acid Derivatives as Potent Intestinal Farnesoid X Receptor Antagonists to Ameliorate Nonalcoholic Steatohepatitis” (J Med Chem, 2022)
# Active and inactive are the calls of the source. No cut-off for these calls is given here.
# What was measured:
# [1] = target: T1, Bile acid receptor (Homo sapiens, UniProt Q96RI1); experiment: Antagonist activity at FXR (unknown origin) expressed in HEK293T cells cotransfected with pCMV-Script-hFXR/pGL4.11-hSHP-Luciferase incubated for 24 hrs in presence of GW4064 by Steady-glo luciferase assay; type: cell-based
# T1 sequence (Q96RI1 whole entry): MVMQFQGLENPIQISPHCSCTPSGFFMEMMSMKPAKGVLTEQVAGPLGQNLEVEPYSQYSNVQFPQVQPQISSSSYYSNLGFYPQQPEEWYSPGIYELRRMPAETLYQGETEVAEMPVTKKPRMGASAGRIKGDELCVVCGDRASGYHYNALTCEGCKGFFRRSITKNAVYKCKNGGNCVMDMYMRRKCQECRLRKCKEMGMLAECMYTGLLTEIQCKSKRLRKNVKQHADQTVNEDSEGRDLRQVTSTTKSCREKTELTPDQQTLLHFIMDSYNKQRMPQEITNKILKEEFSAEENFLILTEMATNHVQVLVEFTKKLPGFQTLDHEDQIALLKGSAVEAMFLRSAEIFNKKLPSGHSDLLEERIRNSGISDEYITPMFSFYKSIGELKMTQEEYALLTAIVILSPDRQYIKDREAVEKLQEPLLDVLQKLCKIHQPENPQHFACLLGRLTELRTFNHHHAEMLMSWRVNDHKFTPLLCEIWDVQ
# [2] = target: T2, Bile acid receptor (Mus musculus) (UniProt Q60641); experiment: In vivo antagonist activity against FXR in mouse assessed as reduction in Fxr level in presence of GW4064; type: functional
# T2 sequence (whole entry): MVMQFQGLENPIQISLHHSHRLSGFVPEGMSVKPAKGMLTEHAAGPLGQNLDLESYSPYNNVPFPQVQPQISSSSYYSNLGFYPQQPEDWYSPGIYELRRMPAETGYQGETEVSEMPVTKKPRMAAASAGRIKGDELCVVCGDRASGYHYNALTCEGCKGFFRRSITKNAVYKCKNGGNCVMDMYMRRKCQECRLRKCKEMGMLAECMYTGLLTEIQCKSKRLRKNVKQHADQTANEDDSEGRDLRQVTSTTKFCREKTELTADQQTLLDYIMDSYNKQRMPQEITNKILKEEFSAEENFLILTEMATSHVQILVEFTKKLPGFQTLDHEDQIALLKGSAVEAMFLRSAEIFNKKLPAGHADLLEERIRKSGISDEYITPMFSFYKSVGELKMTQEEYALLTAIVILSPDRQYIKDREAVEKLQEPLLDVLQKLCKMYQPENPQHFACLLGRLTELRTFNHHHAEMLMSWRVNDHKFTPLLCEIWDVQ
# [3] = Drug distribution in C57BL6 mouse intestine at 10 mg/kg, po administered as single dose measured after 8 hrs; type: ADME, organism-based; conditions: in vivo
# [4] = system: Mus musculus; experiment: Anti-NASH activity in GAN-induced […] mouse assessed as increase in rectal temperature at 10 mg/kg; type: functional, organism-based
# [5] = organism: Mus musculus; experiment: Anti-NASH activity in GAN diet-induced […] mouse assessed as reduction in liver weight; type: functional, organism-based
# [6] = organism: Mus musculus; experiment: Anti-NASH activity in GAN diet-induced […] mouse assessed as reduction in liver index; type: functional, organism-based
# [7] = organism: Mus musculus; experiment: Anti-NASH activity in GAN diet-induced […] mouse assessed as reduction in hepatic triglycerides level; type: functional, organism-based
# [8] = organism: Mus musculus; experiment: Anti-NASH activity in GAN diet-induced […] mouse assessed as reduction in AST level; type: functional, organism-based
# [9] = organism: Mus musculus; experiment: Anti-NASH activity in GAN diet-induced […] mouse assessed as decrease in hydroxyproline in liver; type: functional, organism-based
# [10] = system: Liver; experiment: Anti-NASH activity in GAN diet-induced […] mouse liver assessed as reduction in macrosteatosis by H and E staining based analysis; type: functional
# [11] = system: Liver; experiment: Anti-NASH activity in GAN diet-induced […] mouse liver assessed as reduction in hepatocyte ballooning by H and E staining based analysis; type: functional, cell-based
# [12] = system: Liver; experiment: Anti-NASH activity in GAN diet-induced […] mouse liver assessed as reduction in hepatocyte fat by H and E staining based analysis; type: functional, cell-based
# [13] = system: Liver; experiment: Anti-NASH activity in GAN diet-induced […] mouse liver assessed as reduction in hepatocyte ballooning by Sirius red staining based analysis; type: functional, cell-based
# [14] = system: Liver; experiment: Anti-NASH activity in GAN diet-induced […] mouse liver assessed as reduction in hepatocyte fat by Sirius red staining based analysis; type: functional, cell-based
# [15] = system: Liver; experiment: Anti-NASH activity in GAN diet-induced […] mouse liver assessed as reduction in hepatocyte collagen deposition by Sirius red staining based analysis; type: functional, cell-based
# [16] = system: Liver; experiment: Anti-NASH activity in GAN diet-induced […] mouse liver assessed as reduced NAFLD activity score; type: functional
# [17] = organism: Mus musculus; experiment: Anti-NASH activity in GAN diet-induced […] mouse assessed as reduction in Fabp2 mRNA expression level; type: functional, organism-based
# [18] = organism: Mus musculus; experiment: Anti-NASH activity in GAN diet-induced […] mouse assessed as reduction in Plin2 mRNA expression level; type: functional, organism-based
# [19] = organism: Mus musculus; experiment: Anti-NASH activity in GAN diet-induced […] mouse assessed as downregulation of Ccl2 level; type: functional, organism-based
# [20] = organism: Mus musculus; experiment: Anti-NASH activity in GAN diet-induced […] mouse assessed as downregulation of P-ycard level; type: functional, organism-based
# [21] = organism: Mus musculus; experiment: Anti-NASH activity in GAN diet-induced […] mouse assessed as reduction in Tgf-beta level; type: functional, organism-based
# [22] = organism: Mus musculus; experiment: Anti-NASH activity in GAN diet-induced […] mouse assessed as reduction in Col3a1 level; type: functional, organism-based
# [23] = organism: Mus musculus; experiment: Anti-NASH activity in GAN diet-induced […] mouse assessed as suppression of O-sta expression; type: functional, organism-based
# [24] = organism: Mus musculus; experiment: Anti-NASH activity in GAN diet-induced […] mouse assessed as upregulation CYP7A1 protein by Western blot analysis; type: functional, organism-based
# [25] = organism: Mus musculus; experiment: Anti-NASH activity in GAN diet-induced […] mouse assessed as increase in FXR protein by Western blot analysis; type: functional, organism-based
# [26] = system: Mus musculus; experiment: Anti-NASH activity in GAN diet-induced […] mouse assessed as reduction of sphinogo-myelin level in serum administered orally for 12 weeks; type: functional, organism-based; conditions: route po
# [27] = system: Mus musculus; experiment: Anti-NASH activity in HFMCD diet-induced […] mouse assessed as reduction in hepatic TG concentration at 10 to 30 mg/kg, po for 4 weeks; type: functional, organism-based; conditions: dose 10-30 mg/kg
# [28] = system: Mus musculus; experiment: Anti-NASH activity in HFMCD diet-induced […] mouse assessed as reduction in hepatic hydroxyproline level at 30 mg/kg, po for 4 weeks; type: functional, organism-based
# [29] = organism: Mus musculus; experiment: Anti-NASH activity in HFMCD diet-induced […] mouse assessed as decrease in collagen deposition by Sirius red staining based analysis; type: functional, organism-based
# [30] = organism: Mus musculus; experiment: Anti-NASH activity in GAN diet-induced […] mouse assessed as reduction of bile acid pool size in ileum; type: functional, organism-based
# [31] = organism: Mus musculus; experiment: Anti-NASH activity in GAN diet-induced […] mouse assessed as bile acid level in serum; type: functional, organism-based
smiles,measurement,setting,value
CCCC(=O)O[C@@H]1CC[C@]2(C)[C@H]3CC[C@@H]4[C@H]5[C@H](C(C)C)CC[C@]5(C(=O)NCC(=O)O)CC[C@@]4(C)[C@]3(C)CC[C@H]2C1(C)C,IC50,[1],2100 nM
same,Activity,[2],Active
same,Drug uptake,[3],Active
same,Activity,[4],Active
same,Activity,[5],Active
same,Activity,[6],Active
same,Activity,[7],Active
same,Activity,[8],Active
same,Activity,[9],Active
same,Activity,[10],Active
same,Activity,[11],Active
same,Activity,[12],Active
same,Activity,[13],Active
same,Activity,[14],Active
same,Activity,[15],Active
same,Activity,[16],Active
same,Activity,[17],Active
same,Activity,[18],Active
same,Activity,[19],Active
same,Activity,[20],Active
same,Activity,[21],Active
same,Activity,[22],Active
same,Activity,[23],Active
same,Activity,[24],Active
same,Activity,[25],Active
same,Activity,[26],Active
same,Activity,[27],Active
same,Activity,[28],Active
same,Activity,[29],Active
same,Activity,[30],Active
same,Activity,[31],Active
